SMILES strings stand for the structures.

Assay [1] has as its target T1, Axl kinase domain recombinant protein (Homo sapiens, UniProt P30530).
T1 sequence (P30530 536-807 limits assumed): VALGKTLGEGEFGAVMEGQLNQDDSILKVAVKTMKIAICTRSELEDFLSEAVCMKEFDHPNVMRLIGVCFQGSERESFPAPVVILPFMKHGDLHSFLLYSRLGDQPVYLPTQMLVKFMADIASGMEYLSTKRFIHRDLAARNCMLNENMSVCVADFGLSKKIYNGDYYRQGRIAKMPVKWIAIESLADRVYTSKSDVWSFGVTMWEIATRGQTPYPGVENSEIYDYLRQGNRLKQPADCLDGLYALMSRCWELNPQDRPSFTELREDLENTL
The assay is described as follows: ELISA kinase activity assay, Axl.

In assay [2] the target is c-Met kinase domain recombinant protein (Homo sapiens, UniProt P08581). Briefly: ELISA kinase activity assay, c-Met. (ELISA stands for enzyme-linked immunosorbent assay.)
c-Met kinase domain recombinant protein, sequence (P08581 1078-1345 limits assumed): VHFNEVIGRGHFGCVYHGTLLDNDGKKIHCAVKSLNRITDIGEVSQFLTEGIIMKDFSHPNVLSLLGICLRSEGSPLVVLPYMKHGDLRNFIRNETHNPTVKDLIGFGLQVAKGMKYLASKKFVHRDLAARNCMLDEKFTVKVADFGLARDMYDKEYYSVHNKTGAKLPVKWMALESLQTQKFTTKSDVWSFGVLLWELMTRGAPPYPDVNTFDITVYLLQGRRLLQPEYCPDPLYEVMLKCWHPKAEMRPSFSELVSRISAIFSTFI

Take `CC(C)n1cc(C(=O)Nc2ccc(Oc3ccnc(-c4cnn(C)c4)c3)c(F)c2)c(=O)n([C@H]2CC[C@H](C)CC2)c1=O` [No. 22, N-(3-fluoro-4-((2-(1-methyl-1H-pyrazol-4-yl)pyridin-4-yl)oxy)phenyl)-1-isopropyl-3-((1R,4R)-4-methylcyclohexyl)-2,4-dioxo-1,2,3,4-tetrahydropyrimidin-5-carboxamide]: the IC50 in assay [1] is 10 to 100 nM; in assay [2], greater than 100 nM.

Take `Cn1cc(-c2cc(Oc3ccc(NC(=O)c4cn(CC5CC5)c(=O)n(-c5ccc(F)cc5)c4=O)cc3F)ccn2)cn1` [No. 5, 1-(cyclopropylmethyl)-N-(3-fluoro-4-((2-(1-methyl-1H-pyrazol-4-yl)pyridin-4-yl)oxy)phenyl)-3-(4-fluorophenyl)-2,4-dioxo-1,2,3,4-tetrahydropyrimidin-5-carboxamide]: the IC50 in assay [1] and in assay [2] was less than 10 nM throughout.

For `C=CCn1cc(C(=O)Nc2ccc(Oc3ccnc(-c4cnn(C)c4)c3)c(F)c2)c(=O)n(-c2ccc(F)cc2)c1=O` [No. 7, 1-allyl-N-(3-fluoro-4-((2-(1-methyl-1H-pyrazol-4-yl)pyridin-4-yl)oxy)phenyl)-3-(4-fluorophenyl)-2,4-dioxo-1,2,3,4-tetrahydropyrimidin-5-carboxamide], the IC50 in assay [1] and in assay [2] was less than 10 nM throughout.

For the compound `COc1ccc(-c2cnc(N)c(-c3ccc(NC(=O)c4cn(C(C)C)c(=O)n(-c5ccc(F)cc5)c4=O)cc3F)c2)cc1OC` [No. 37, N-(4-(2-amino-5-(3,4-dimethoxyphenyl)pyridin-3-yl)-3-fluorophenyl)-3-(4-fluorophenyl)-1-isopropyl-2,4-dioxo-1,2,3,4-tetrahydropyrimidin-5-carboxamide], the IC50 was less than 10 nM in assay [1] and 10 to 100 nM in assay [2].

Regarding `Cc1ccc(-n2c(=O)c(C(=O)Nc3ccc(Oc4ccnc(-c5cnn(C)c5)c4)c(F)c3)cn(C(C)C)c2=O)cc1` [No. 15, N-(3-fluoro-4-((2-(1-methyl-1H-pyrazol-4-yl)pyridin-4-yl)oxy)phenyl)-1-isopropyl-2,4-dioxo-3-p-tolyl-1,2,3,4-tetrahydropyrimidin-5-carboxamide], the IC50 in assay [1] and in assay [2] was less than 10 nM throughout.

For `CC(C)n1cc(C(=O)Nc2ccc(Oc3ccnc(-c4cnn(C)c4)c3)cc2)c(=O)n(-c2ccc(F)cc2)c1=O` [No. 25, 3-(4-fluorophenyl)-1-isopropyl-N-(4-((2-(1-methyl-1H-pyrazol-4-yl)pyridin-4-yl)oxy)phenyl)-2,4-dioxo-1,2,3,4-tetrahydropyrimidin-5-carboxamide], in assay [2], the concentration for half-maximal inhibition (IC50) was less than 10 nM.

Turning to `CC(C)n1cc(C(=O)Nc2ccc(Oc3ccnc4[nH]cc(Br)c34)c(F)c2)c(=O)n(-c2ccc(F)cc2)c1=O` [No. 42], the IC50 in assay [1] and in assay [2] was less than 10 nM in each case.

As for `CC(C)n1cc(C(=O)Nc2ccc(Oc3ccnc(-c4cnn(C5CC5)c4)c3)c(F)c2)c(=O)n(-c2ccc(F)cc2)c1=O` [No. 33, N-(4-((2-(1-cyclopropyl-1H-pyrazol-4-yl)pyridin-4-yl)oxy)-3-fluorophenyl)-3-(4-fluorophenyl)-1-isopropyl-2,4-dioxo-1,2,3,4-tetrahydropyrimidin-5-carboxamide], in assay [2], the IC50 fell in the range of 10 to 100 nM.

With `CC(C)n1cc(C(=O)Nc2ccc(Oc3ccnc(-c4cnn(C)c4)c3)c(F)c2F)c(=O)n(-c2ccc(F)cc2)c1=O` [No. 27, N-(2,3-difluoro-4-((2-(1-methyl-1H-pyrazol-4-yl)pyridin-4-yl)oxy)phenyl)-3-(4-fluorophenyl)-1-isopropyl-2,4-dioxo-1,2,3,4-tetrahydropyrimidin-5-carboxamide], in assay [2], the IC50 fell in the range of 10 to 100 nM.

For `CC(C)n1cc(C(=O)Nc2ccc(-c3cc(-c4cnn(C)c4)cnc3N)c(F)c2)c(=O)n(-c2ccc(F)cc2)c1=O` [No. 38, N-(4-(2-amino-5-(1-methyl-1H-pyrazol-4-yl)pyridin-3-yl)-3-fluorophenyl)-3-(4-fluorophenyl)-1-isopropyl-2,4-dioxo-1,2,3,4-tetrahydropyrimidin-5-carboxamide], the IC50 in assay [1] and in assay [2] was less than 10 nM in each case.

Take `CC(C)n1cc(C(=O)Nc2ccc(Oc3ccnc(-c4cnn(C)c4)c3)c(F)c2)c(=O)n(-c2cccc(F)c2)c1=O` [No. 17, N-(3-fluoro-4-((2-(1-methyl-1H-pyrazol-4-yl)pyridin-4-yl)oxy)phenyl)-3-(3-fluorophenyl)-1-isopropyl-2,4-dioxo-1,2,3,4-tetrahydropyrimidin-5-carboxamide]: the IC50 in assay [1] and in assay [2] was less than 10 nM throughout.

For the compound `COc1cc(NC(=O)c2cn(C(C)C)c(=O)n(-c3ccc(F)cc3)c2=O)ccc1Oc1ccnc(-c2cnn(C)c2)c1` [No. 58, 3-(4-fluorophenyl)-1-isopropyl-N-(3-methoxy-4-((2-(1-methyl-1H-pyrazol-4-yl)pyridin-4-yl)oxy)phenyl)-2,4-dioxo-1,2,3,4-tetrahydropyrimidin-5-carboxamide], in assay [1], the IC50 is greater than 100 nM.

With `CC(C)n1cc(C(=O)Nc2ccc(Oc3ccnc(-c4cn[nH]c4)c3)c(F)c2)c(=O)n(-c2ccc(F)cc2)c1=O` [No. 31, N-(4-((2-(1H-pyrazol-4-yl)pyridin-4-yl)oxy)-3-fluorophenyl)-3-(4-fluorophenyl)-1-isopropyl-2,4-dioxo-1,2,3,4-tetrahydropyrimidin-5-carboxamide], the IC50 in assay [2] was 10 to 100 nM.

On to `CC(C)n1cc(C(=O)Nc2ccc(Oc3ccnc(-c4cnn(C)c4)c3)c(F)c2)c(=O)n(-c2ccc(F)cc2)c1=O` [No. 3, N-(3-fluoro-4-((2-(1-methyl-1H-pyrazol-4-yl)pyridin-4-yl)oxy)phenyl)-3-(4-fluorophenyl)-1-isopropyl-2,4-dioxo-1,2,3,4-tetrahydropyrimidin-5-carboxamide], for which, in assay [2], the IC50 was less than 10 nM.

Turning to `CC(C)n1cc(C(=O)Nc2ccc(Oc3ccncc3-c3cnn(C)c3)cc2)c(=O)n(-c2ccc(F)cc2)c1=O` [No. 36, 3-(4-fluorophenyl)-1-isopropyl-N-(4-((3-(1-methyl-1H-pyrazol-4-yl)pyridin-4-yl)oxy)phenyl)-2,4-dioxo-1,2,3,4-tetrahydropyrimidin-5-carboxamide], in assay [2], the IC50 lay in the range of 10 to 100 nM.

As for `CC(C)n1cc(C(=O)Nc2ccc(Oc3ccnc(-c4cnn(C)c4)c3)cc2F)c(=O)n(-c2ccc(F)cc2)c1=O` [No. 26, N-(2-fluoro-4-((2-(1-methyl-1H-pyrazol-4-yl)pyridin-4-yl)oxy)phenyl)-3-(4-fluorophenyl)-1-isopropyl-2,4-dioxo-1,2,3,4-tetrahydropyrimidin-5-carboxamide], the IC50 in assay [2] was less than 10 nM.

On to `CC(C)n1cc(C(=O)Nc2cc(F)c(Oc3ccnc(-c4cnn(C)c4)c3)c(F)c2)c(=O)n(-c2ccc(F)cc2)c1=O` [No. 28, N-(3,5-difluoro-4-((2-(1-methyl-1H-pyrazol-4-yl)pyridin-4-yl)oxy)phenyl)-3-(4-fluorophenyl)-1-isopropyl-2,4-dioxo-1,2,3,4-tetrahydropyrimidin-5-carboxamide], for which the IC50 in assay [2] was less than 10 nM.

In the case of `CC(C)n1cc(C(=O)Nc2cc(F)c(Oc3ccnc(-c4cnn(C)c4)c3)cc2F)c(=O)n(-c2ccc(F)cc2)c1=O` [No. 29, N-(2,5-difluoro-4-((2-(1-methyl-1H-pyrazol-4-yl)pyridin-4-yl)oxy)phenyl)-3-(4-fluorophenyl)-1-isopropyl-2,4-dioxo-1,2,3,4-tetrahydropyrimidin-5-carboxamide], the IC50 in assay [2] is less than 10 nM.

Consider `Cn1cc(-c2cnccc2Oc2ccc(NC(=O)c3cn(C)c(=O)n(-c4ccc(F)cc4)c3=O)cc2)cn1` [No. 53, 3-(4-fluorophenyl)-1-methyl-N-(4-((3-(1-methyl-1H-pyrazol-4-yl)pyridin-4-yl)oxy)phenyl)-2,4-dioxo-1,2,3,4-tetrahydropyrimidin-5-carboxamide], for which the IC50 in assay [2] is greater than 100 nM.

For `CC(C)n1cc(C(=O)Nc2ccc(Oc3ccnc(-c4cnn(CC(C)(C)O)c4)c3)c(F)c2)c(=O)n(-c2ccc(F)cc2)c1=O` [No. 32, N-(3-fluoro-4-((2-(1-(2-hydroxy-2-methylpropyl)-1H-pyrazol-4-yl)pyridin-4-yl)oxy)phenyl)-3-(4-fluorophenyl)-1-isopropyl-2,4-dioxo-1,2,3,4-tetrahydropyrimidin-5-carboxamide], the IC50 in assay [2] was in the range of 10 to 100 nM.

Consider `CCn1cc(C(=O)Nc2ccc(Oc3ccncc3-c3cnn(C)c3)cc2)c(=O)n(-c2ccc(F)cc2)c1=O` [No. 52, 3-(4-fluorophenyl)-1-ethyl-N-(4-((3-(1-methyl-1H-pyrazol-4-yl)pyridin-4-yl)oxy)phenyl)-2,4-dioxo-1,2,3,4-tetrahydropyrimidin-5-carboxamide], for which the 50% inhibitory concentration (IC50) in assay [2] fell in the range of 10 to 100 nM.

With `CC(C)n1cc(C(=O)Nc2ccc(Oc3ccnc(-c4cnn(CCN5CCN(C)CC5)c4)c3)c(F)c2)c(=O)n(-c2ccc(F)cc2)c1=O` [No. 34, N-(3-fluoro-4-((2-(1-(2-(4-methylpiperazin-1-yl)ethyl)-1H-pyrazol-4-yl)pyridin-4-yl)oxy)phenyl)-3-(4-fluorophenyl)-1-isopropyl-2,4-dioxo-1,2,3,4-tetrahydropyrimidin-5-carboxamide], the IC50 in assay [2] is 10 to 100 nM.

Take `Cc1nn(C)cc1-c1cc(Oc2ccc(NC(=O)c3cn(C(C)C)c(=O)n(-c4ccc(F)cc4)c3=O)cc2F)ccn1` [No. 35, N-(4-((2-(1,3-dimethyl-1H-pyrazol-4-yl)pyridin-4-yl)oxy)-3-fluorophenyl)-3-(4-fluorophenyl)-1-isopropyl-2,4-dioxo-1,2,3,4-tetrahydropyrimidin-5-carboxamide]: the IC50 in assay [2] was in the range of 10 to 100 nM.

Take `Cn1cc(-c2cnccc2Oc2ccc(NC(=O)c3cn(CC4CCOCC4)c(=O)n(-c4ccc(F)cc4)c3=O)cc2)cn1` [No. 54, 3-(4-fluorophenyl)-N-(4-((3-(1-methyl-1H-pyrazol-4-yl)pyridin-4-yl)oxy)phenyl)-2,4-dioxo-1-((tetrahydro-2H-pyran-4-yl)methyl)-1,2,3,4-tetrahydropyrimidin-5-carboxamide]: the IC50 in assay [2] fell in the range of 10 to 100 nM.

By IC50 is commonly meant the concentration needed to halve the response being measured.
